Measured values published in article PMC5791972 (PLoS ONE, 2018).
Like-named read-outs stand apart in the source and are kept apart here.

Assays:
[1] = in vivo
[2] = system: NMRI mice; test: Locomotor activity; type: in vivo, mouse; conditions: 0.1, 3 or 10 mg/kg PO
Description: NMRI mice were habituated to their room for at least 2 weeks after the delivery and kept under standard conditions in groups of 4–5 animals per cage. Food and water were available ad libitum.
Spontaneous motility and rearing were measured by an automated system (Coulbourn Instruments, USA). Animals were introduced into transparent square cages (40 cm length) that are equipped with 2 light barrier systems in order to monitor the movements as well as rearing behavior automatically. The movements of the animals were recorded for 30 minutes. At the end of the experiment, the animals were sacrificed via isofluorane inhalation and subsequent decapitation.

[3] = molecular target: CCK1 (CCKA) (h) (Homo sapiens, UniProt P32238); type: binding; conditions: 1.0E-06 M
[4] = molecular target: T1, CysLT1 (LTD4) (h) (Homo sapiens, UniProt Q9Y271); type: binding; conditions: 1.0E-06 M
T1 construct: host or cells: CHO cells
T1 sequence (Q9Y271 1-337): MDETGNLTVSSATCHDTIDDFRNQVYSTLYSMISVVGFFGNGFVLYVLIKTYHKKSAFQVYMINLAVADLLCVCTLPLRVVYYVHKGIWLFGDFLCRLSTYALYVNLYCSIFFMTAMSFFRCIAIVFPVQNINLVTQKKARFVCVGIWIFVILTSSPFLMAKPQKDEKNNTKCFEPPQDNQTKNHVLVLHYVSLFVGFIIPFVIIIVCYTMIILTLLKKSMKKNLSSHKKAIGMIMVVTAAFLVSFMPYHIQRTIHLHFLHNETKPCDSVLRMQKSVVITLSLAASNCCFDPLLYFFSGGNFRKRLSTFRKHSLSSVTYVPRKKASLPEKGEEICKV

[5] = molecular target: T2, phosphatase 1B (h) (PTP1B) (Homo sapiens, UniProt P18031); test: enzyme assay; type: biochemical; conditions: 1.0E-06 M
T2 construct: host or cells: E. coli
T2 sequence (P18031 1-435): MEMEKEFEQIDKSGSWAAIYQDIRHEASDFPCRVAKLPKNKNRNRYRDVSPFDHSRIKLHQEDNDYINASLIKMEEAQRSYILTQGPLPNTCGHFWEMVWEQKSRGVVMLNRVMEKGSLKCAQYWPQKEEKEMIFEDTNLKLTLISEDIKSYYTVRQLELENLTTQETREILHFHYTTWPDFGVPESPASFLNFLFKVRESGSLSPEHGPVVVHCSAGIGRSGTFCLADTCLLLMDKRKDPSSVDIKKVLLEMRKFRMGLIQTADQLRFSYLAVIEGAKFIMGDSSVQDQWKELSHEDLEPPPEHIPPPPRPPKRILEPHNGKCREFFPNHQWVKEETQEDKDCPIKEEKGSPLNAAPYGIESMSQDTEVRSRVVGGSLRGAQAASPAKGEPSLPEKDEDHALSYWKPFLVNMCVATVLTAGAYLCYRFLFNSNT

[6] = system: Na+ channel (site 2); type: binding, rat; conditions: 1.0E-06 M
[7] = molecular target: p38α kinase (h) (Homo sapiens, UniProt Q16539); test: enzyme assay; type: biochemical; conditions: 1.0E-06 M
[8] = molecular target: T3, α2C (h) (Homo sapiens, UniProt P18825); type: binding; conditions: 1.0E-06 M
T3 construct: host or cells: CHO cells
T3 sequence (P18825 1-462): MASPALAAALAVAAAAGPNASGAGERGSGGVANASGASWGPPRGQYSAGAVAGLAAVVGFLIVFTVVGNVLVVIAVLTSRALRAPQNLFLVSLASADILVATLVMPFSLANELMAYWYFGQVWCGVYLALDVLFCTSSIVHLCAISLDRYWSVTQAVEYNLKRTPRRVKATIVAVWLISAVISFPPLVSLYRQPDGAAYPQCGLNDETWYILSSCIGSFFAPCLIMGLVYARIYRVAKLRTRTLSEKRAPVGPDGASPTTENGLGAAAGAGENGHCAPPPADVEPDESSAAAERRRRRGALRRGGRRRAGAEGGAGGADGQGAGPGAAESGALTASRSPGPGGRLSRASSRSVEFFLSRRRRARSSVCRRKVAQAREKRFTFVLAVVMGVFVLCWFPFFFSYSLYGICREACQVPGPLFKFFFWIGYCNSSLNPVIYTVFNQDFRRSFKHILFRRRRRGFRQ

[9] = system: kainate; type: binding, rat; conditions: 1.0E-06 M
[10] = molecular target: T4, Y1 (h) (Homo sapiens, UniProt P25929); type: binding; conditions: 1.0E-06 M
T4 construct: (endogenous); host or cells: SK-N-MC cells
T4 sequence (P25929 1-384): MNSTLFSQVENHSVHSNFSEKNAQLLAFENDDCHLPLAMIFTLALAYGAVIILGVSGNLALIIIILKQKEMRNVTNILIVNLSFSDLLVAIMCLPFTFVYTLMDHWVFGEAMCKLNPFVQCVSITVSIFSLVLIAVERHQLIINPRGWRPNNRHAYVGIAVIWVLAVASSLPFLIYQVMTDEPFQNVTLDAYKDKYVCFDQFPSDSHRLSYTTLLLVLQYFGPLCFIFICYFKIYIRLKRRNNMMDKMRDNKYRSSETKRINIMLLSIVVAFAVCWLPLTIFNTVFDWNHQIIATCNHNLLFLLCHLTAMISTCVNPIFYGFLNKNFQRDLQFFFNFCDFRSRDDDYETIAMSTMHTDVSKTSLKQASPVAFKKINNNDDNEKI

[11] = molecular target: κ (KOP) (Rattus norvegicus, UniProt P34975); test: biochemical
[12] = Swiss Webster, mouse, iv, 1 mg/kg
[13] = Swiss Webster, mouse, po, 10 mg/kg
[14] = male, C57BL/6, mouse, iv, 1 mg/kg
[15] = male, C57BL/6, mouse, po, 10 mg/kg

Chain of κ (KOP) (P34975 whole entry): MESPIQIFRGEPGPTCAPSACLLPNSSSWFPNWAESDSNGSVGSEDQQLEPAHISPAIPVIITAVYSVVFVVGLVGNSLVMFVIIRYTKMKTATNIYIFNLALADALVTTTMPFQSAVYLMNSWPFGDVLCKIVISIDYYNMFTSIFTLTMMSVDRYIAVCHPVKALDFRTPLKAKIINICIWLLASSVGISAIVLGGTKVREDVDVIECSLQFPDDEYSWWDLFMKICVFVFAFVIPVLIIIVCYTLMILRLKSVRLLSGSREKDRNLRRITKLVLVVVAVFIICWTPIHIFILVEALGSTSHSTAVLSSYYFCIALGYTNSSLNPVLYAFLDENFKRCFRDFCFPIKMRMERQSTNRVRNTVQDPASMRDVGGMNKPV
Chain of p38α kinase (h) (Q16539 whole entry): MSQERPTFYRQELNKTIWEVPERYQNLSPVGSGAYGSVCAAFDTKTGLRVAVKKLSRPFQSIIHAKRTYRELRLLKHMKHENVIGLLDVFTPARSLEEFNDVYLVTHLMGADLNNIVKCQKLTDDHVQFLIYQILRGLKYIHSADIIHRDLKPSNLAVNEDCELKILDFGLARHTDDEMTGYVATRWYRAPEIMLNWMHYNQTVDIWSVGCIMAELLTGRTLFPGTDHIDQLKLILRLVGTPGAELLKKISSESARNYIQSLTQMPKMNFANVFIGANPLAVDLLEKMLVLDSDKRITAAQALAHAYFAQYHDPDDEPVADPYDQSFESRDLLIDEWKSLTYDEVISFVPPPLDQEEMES
Chain of CCK1 (CCKA) (h) (P32238 whole entry): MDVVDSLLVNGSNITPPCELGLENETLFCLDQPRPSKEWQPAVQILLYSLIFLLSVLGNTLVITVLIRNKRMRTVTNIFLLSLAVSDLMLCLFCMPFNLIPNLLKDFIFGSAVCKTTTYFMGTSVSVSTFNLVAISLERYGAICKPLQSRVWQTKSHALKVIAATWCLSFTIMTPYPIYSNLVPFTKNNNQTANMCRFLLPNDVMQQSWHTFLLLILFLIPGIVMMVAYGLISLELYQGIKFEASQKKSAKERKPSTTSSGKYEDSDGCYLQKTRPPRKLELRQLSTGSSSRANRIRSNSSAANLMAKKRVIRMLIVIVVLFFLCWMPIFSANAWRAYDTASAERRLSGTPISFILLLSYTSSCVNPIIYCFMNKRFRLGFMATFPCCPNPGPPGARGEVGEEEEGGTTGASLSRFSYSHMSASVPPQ

In the case of `Cn1c(=O)n(CCCO)c(=O)c2c1nc(Oc1cccc(Cl)c1)n2Cc1ccc(Cl)cc1` [HC-070], the Vd [1, 12] is reported as 2.2 L/kg, the clearance [1, 12] is reported as 11 mL/min/kg and the half-life [1, 12] is reported as 3.6 h. For the same compound, the Tmax [1, 13] was 1 h, the half-life [1, 13] was 2.7 h and the Vd [1, 14] was 1.5 L/kg. For the same compound, the clearance [1, 14] was 13 mL/min/kg, the concentration at 2 h ([1]; male, C57BL/6, mouse, iv, 1 mg/kg, CBR (concentration in brain)) was 299 ± 11 nM and the concentration at 2 h ([1]; male, C57BL/6, mouse, iv, 1 mg/kg, CPL (concentration in plasma)) was 339 ± 66 nM. For the same compound, the Cmax [1, 15] was 937 nM, the Tmax [1, 15] was 1 h and the concentration at 2 h ([1]; male, C57BL/6, mouse, po, 10 mg/kg, CBR (concentration in brain)) was 525 ± 72 nM. For the same compound, the concentration at 2 h ([1]; male, C57BL/6, mouse, po, 10 mg/kg, CPL (concentration in plasma)) was 583 ± 108 nM and the locomotor activity [2] was “not impacted”.
`Cn1c(=O)n(CCCO)c(=O)c2c1nc(Oc1cccc(OC(F)(F)F)c1)n2Cc1ccc(Cl)cc1` [HC-608] gave an inhibition at 1 µM ([3]; read-out: % Inhibition 1st) of -11.2%, an inhibition at 1 µM ([3]; read-out: % Inhibition 2nd) of -0.4% and an inhibition at 1 µM ([3]; read-out: % Inhibition Mean) of -5.8%. For the same compound, the inhibition at 1 µM ([4]; read-out: % Inhibition 1st) was 13.2%, the inhibition at 1 µM ([4]; read-out: % Inhibition 2nd) was 3.4% and the inhibition at 1 µM ([4]; read-out: % Inhibition Mean) was 8.3%. For the same compound, the “% Inhibition 1st” value [5] was -6.7%, the “% Inhibition 2nd” value [5] was -5.9% and the “% Inhibition Mean” value [5] was -6.3%. For the same compound, the “% Inhibition 1st” value [6] was 12%, the “% Inhibition 2nd” value [6] was -7.3% and the “% Inhibition Mean” value [6] was 2.3%. For the same compound, the “% Inhibition 1st” value [7] was -0.9%, the “% Inhibition 2nd” value [7] was -1.2% and the “% Inhibition Mean” value [7] was -1.1%. It also gave an inhibition at 1 µM ([8]; read-out: % Inhibition 1st) of -4.1%, an inhibition at 1 µM ([8]; read-out: % Inhibition 2nd) of -10.2% and an inhibition at 1 µM ([8]; read-out: % Inhibition Mean) of -7.1%. The “% Inhibition 1st” value [9] was 5.9%, the “% Inhibition 2nd” value [9] was 5.3% and the “% Inhibition Mean” value [9] was 5.6%. For the same compound, the inhibition at 1 µM ([10]; read-out: % Inhibition 1st) was -12.8%, the inhibition at 1 µM ([10]; read-out: % Inhibition 2nd) was -14.1% and the inhibition at 1 µM ([10]; read-out: % Inhibition Mean) was -13.4%. The inhibition at 1 µM ([11]; read-out: % Inhibition 1st) was -8.1%, the inhibition at 1 µM ([11]; read-out: % Inhibition 2nd) was 1.1% and the inhibition at 1 µM ([11]; read-out: % Inhibition Mean) was -3.5%.
